The source of these data is patent publication US7906512B2, “3,6-substituted imidazol[1,2-b]pyridazine analogs for treating allergic and inflammatory diseases” (Alcon, Inc., priority 2005, dated 2011).

The structures appear in SMILES notation.

In the first experiment the target is Syk (h) (Homo sapiens, UniProt P43405). Description: Syk kinase inhibition assay (33P-ATP filter binding).
Details: not given
Format: biochemical. How it is done: In a final reaction volume of 25 μl, Syk (h) (5-10 mU) is incubated with 50 mM Tris pH 7.5, […], 0.1 mM Na3VO4, 0.1% β-mercaptoethanol, 0.1 mg/mL poly (Glu, Tyr) 4:1, 10 μM test agent, 10 mM MgAcetate and [γ-^33P-ATP] (specific activity approximately 500 cpm/pmol, concentration as required). The reaction is initiated by the addition of the MgATP mix. After incubation for 40 minutes at room temperature, the reaction is stopped by the addition of 5 μl of a 3% phosphoric acid solution. 10 μl of the reaction is then spotted onto a Filtermat A and washed three times for 5 minutes in 75 mM phosphoric acid and once in methanol prior to drying and scintillation counting. Percent inhibition was calculated using the following formula: % Control=((sample-mean no enzyme)/(mean plus enzyme−mean no enzyme))×100.
As to `CCCC/C=C/c1cnc2ccc(NCCN(C)C)nn12`, at 10 µM the inhibition was 27%.

Staying with this experiment, now noted: 10 μM test agent; 40 minutes at room temperature; substrate poly (Glu, Tyr) 4:1; read-out: % inhibition.
Take `COc1ccccc1-c1cnc2ccc(NCc3ccccn3)nn12`: the inhibition at 10 µM is 81%.

As for `CCCNc1ccc2ncc(-c3ccsc3)n2n1`, the inhibition at 10 µM is 23%.

Consider `COc1ccc(-c2cnc3ccc(NCc4ccccn4)nn23)cc1`, for which the inhibition at 10 µM stood at 77%.

For the compound `c1n[nH]cc1-c1cnc2ccc(NC3CCOCC3)nn12`, the inhibition at 10 µM came to 42%.

With `CN1CCN(c2ccc(CNc3ccc4ncc(-c5cccc(OC(F)(F)F)c5)n4n3)cc2)CC1`, the inhibition at 10 µM amounted to 33%.

As to `c1csc(-c2cnc3ccc(NCC4CC4)nn23)c1`, the inhibition at 10 µM came out at 26%.

For the compound `CCCNc1ccc2ncc(-c3cc(C)cs3)n2n1`, the inhibition at 10 µM came to 38%.

As to `COc1cc(CNc2ccc3ncc(-c4ccc(Oc5ccccc5)cc4)n3n2)cc(OC)c1OC`, the inhibition at 10 µM worked out at 24%.

What is called inhibition is how much of the control response was suppressed.
